Results on one molecule are retold here after BindingDB's records for patent US10188642 (Cancer Research Technology Limited, 2019).

In the test the target is T1, Dual specificity protein kinase TTK (Homo sapiens, UniProt P33981).
T1 sequence (P33981 whole entry): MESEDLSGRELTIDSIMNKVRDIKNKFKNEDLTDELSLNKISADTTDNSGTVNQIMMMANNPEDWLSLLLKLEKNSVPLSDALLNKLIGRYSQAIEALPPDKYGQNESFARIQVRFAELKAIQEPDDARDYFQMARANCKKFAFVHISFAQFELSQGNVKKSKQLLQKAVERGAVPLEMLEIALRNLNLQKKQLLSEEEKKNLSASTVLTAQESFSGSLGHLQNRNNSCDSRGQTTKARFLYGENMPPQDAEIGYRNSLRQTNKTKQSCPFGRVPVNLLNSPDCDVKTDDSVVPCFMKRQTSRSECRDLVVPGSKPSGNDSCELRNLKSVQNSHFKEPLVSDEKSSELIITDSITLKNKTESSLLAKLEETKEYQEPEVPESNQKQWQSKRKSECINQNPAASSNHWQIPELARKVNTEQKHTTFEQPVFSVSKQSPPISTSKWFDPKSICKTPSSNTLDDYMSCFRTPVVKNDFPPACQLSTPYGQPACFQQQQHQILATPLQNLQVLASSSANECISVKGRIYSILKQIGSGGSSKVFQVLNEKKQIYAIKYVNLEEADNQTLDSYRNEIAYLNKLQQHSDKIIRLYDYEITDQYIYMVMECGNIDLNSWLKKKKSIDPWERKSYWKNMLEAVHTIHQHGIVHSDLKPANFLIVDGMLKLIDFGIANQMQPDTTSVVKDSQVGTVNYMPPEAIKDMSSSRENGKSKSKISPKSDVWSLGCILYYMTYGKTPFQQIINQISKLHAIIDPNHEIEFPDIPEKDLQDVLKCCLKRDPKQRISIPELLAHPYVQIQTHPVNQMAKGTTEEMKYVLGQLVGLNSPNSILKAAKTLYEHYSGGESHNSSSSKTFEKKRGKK
In words: Measurement of Inhibition of MPS1 Kinase. As for the experimental part: The reaction was carried out for 60 min at room temperature and stopped by the addition of buffer (10 μl) containing 20 mM EDTA, 0.05% (v/v) Brij-35, in 0.1M HEPES-buffered saline (Free acid, Sigma, UK). […] The % inhibition of the compounds is calculated relative to the means of selected control wells. […] The % inhibitions at each concentration are then fitted to a 4 parameter logistic fit: y=(a+((b−a)/(1+((c/x^d)))) where a=asym min, b=asym max, c=IC50 and d=hill coefficient.

For orientation: IC50 means the point on the concentration scale where inhibition reaches its midpoint. Higher therefore signals a need for much substance. As for `COc1cc(-c2nnc3n2CCN(C(=O)CC(C)(C)C)C3)ccc1Nc1cc2cc(-c3cnn(CC(C)(C)O)c3)ccc2cn1` [US10188642, Example 55], the IC50 was determined as 3 nM.
